Measurements taken from US5840936A, “Aminosterol compounds useful as inhibitors of the sodium/proton exchanger (NHE)” (priority 1995, dated 1998).

Columns and labels:
HM = HM MTT assay; format: cell-based; conditions: Table II; read-out: HM MTT assay, Minimum Effective Concentration
[1] = test system: chick embryo vitelline capillaries; experiment: Chick embryo vitelline capillary regression assay; format: in vivo; design: key to Vitelline capillary regression: +: Vascular reactivity; 0: No vascular reactivity; +/-: Equivocal reactivity
Procedure: Using the chick embryo vitelline capillaries assay, compounds were tested for their ability to induce capillary regression. Each compound was applied in 0.1 ml of 15% Ficol 400 and PBS onto the embryo, and vascular regression was assessed after 60 minutes.
The 3-day chick embryo consists of an embryonic disc from which numerous vessels emerge and return, forming a "FIG. 8"-shaped structure--the embryo in the center with vascular loops extending outward over both poles. […] Following a lag period of around 15 minutes, the constriction of continuity between capillary and secondary vessels, generally on the "venous" side, was observed. Continued pulsatile blood flow progressed, resulting in a "swelling" of the blind tube, followed by a pinching off of the remaining connection and formation of an enclosed vascular sac resembling a "blood island." This process progressed until only the largest vessels remained intact.

[2] = test system: Xenopus tadpoles, stage 59-60; experiment: Xenopus tadpole assay; conditions: in vivo
ELC = ELC MTT; format: cell-based; conditions: Table II; read-out: ELC MTT, Minimum Effective Concentration
human melanoma = experiment: Time course of effect on melanoma growth; apoptosis; format: cell-based

Q: With `CC(C)CCC[C@@H](C)[C@H]1CC[C@H]2[C@@H]3CC[C@H]4C[C@@H](NCCCNCCCCNCCCN)CC[C@]4(C)[C@H]3CC[C@]12C` [Compound 353] as the compound, how does the minimal effective concentration (HM) read?
A: 3 µg/mL

Q: And the Vitelline capillary regression ([1]; 1 μg applied)?
A: +/-

Q: And the “Effect on chick embryo vessels” value ([1]; 3- to 5-day chick embryo)?
A: no effect on the chick embryo capillary bed

Q: And the “Pharmacologic similarity in tadpole assay” value [2]?
A: effects like those produced by compound 1436

Q: What about the minimal effective concentration (ELC) of the same compound?
A: 1.9 µg/mL

Q: What about the Apoptosis (human melanoma) of the same compound?
A: apoptotic cell death has been induced

Q: What about the “Time course of effect on growth of melanoma” value (human melanoma) of the same compound?
A: most pronounced over 48 hours, with less of an effect noted within the first 12 hours of incubation
